Experimental findings from US9624238B2, “4H-thieno[3,2-C]chromene-based inhibitors of Notum Pectinacetylesterase and methods of their use” (Lexicon Pharmaceuticals, Inc., priority 2011, dated 2017) are described below.

SMILES strings stand for the structures. pEC50, pIC50: −log10 of the molar value.

Assay [1] concerns the target T1, human notum pectinacetyltransferase (Homo sapiens, UniProt Q6P988).
T1 construct: made in house; unpurified conditioned medium used
T1 sequence (Q6P988 20-496): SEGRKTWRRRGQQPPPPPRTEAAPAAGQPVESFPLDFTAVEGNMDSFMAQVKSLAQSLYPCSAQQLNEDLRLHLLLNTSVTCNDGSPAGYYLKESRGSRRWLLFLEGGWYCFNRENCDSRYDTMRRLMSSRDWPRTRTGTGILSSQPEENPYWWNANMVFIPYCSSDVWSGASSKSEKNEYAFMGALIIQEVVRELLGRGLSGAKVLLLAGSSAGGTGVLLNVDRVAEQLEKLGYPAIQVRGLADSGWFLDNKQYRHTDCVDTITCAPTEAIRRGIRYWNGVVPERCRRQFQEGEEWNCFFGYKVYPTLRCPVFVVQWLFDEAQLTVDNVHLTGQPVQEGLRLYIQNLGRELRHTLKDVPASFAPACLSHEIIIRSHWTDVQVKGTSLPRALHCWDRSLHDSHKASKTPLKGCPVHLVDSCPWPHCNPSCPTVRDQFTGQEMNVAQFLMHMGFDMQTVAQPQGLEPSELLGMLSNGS
The assay is described as follows: Binding assay (OPTS esterase substrate, fluorimetric). It counts as biochemical. The method, then:
Plasmid containing human notum pectinacetyltransferase in pcDNA3.1(+) vector was transfected into HEK (293 cells and clones were selecting by growing in presence of 400 ug/mL of G418. Condition media from these cells was used for the assay.

In assay [2] the target is T1, human notum pectinacetyltransferase. The assay is described as follows: Reporter assay (CellSensor LEF/TCF-bla FreeStyle 293F cells, Wnt3a and notum conditioned media). It counts as cell-based.
Setting [3] is: given as a numeric bound above the legend's range.

In the case of `O=C(O)C1CCN(C(=O)c2cc3c(s2)-c2cc(F)cc(F)c2SC3)C1` (stereo not drawn), the pIC50 in assay [1] (class symbols) is > 6.00. Also, in assay [2] (class symbols), the pEC50 was > 7.30.
Taken in the same sequence, the figures for `O=C1CCN(C(=O)c2cc3c(s2)-c2cc(F)cc(F)c2SC3)C1` were > 7.30 and > 7.30.
For the compound `NC(=O)c1cc2c(s1)-c1ccsc1CC2`, the pIC50 in assay [1] (class symbols) was > 7.30. The negative-log EC50 (pEC50) in assay [2] (class symbols) was > 7.30.
As to `O=C(O)c1cc2c(s1)-c1ccsc1CC2`, the pIC50 in assay [1] (class symbols) was > 7.30. Also, the pEC50 in assay [2] (class symbols) was > 6.30.
For `NC(=O)c1cc2c(s1)-c1ccccc1SCC2`, in that order: > 7.30 and > 7.30.
For `COc1ccc2c(c1Br)CCc1cc(C(N)=O)sc1-2`, in that order: > 7.30 and > 7.30.
For `O=C(O)c1cc2c(s1)-c1cc(Cl)cc(Br)c1OC2`, in that order: > 6.00 and > 7.30.
Turning to `NC(=O)c1cc2c(s1)-c1cccc(Cl)c1SC2`, the pIC50 in assay [1] (class symbols) was > 6.00. Further, the pEC50 in assay [2] (class symbols) is > 7.30.
`O=C(O)c1cc2c(s1)-c1cccc(Cl)c1SC2`: the pIC50 in assay [1] (class symbols) was > 5.70. The pEC50 in assay [2] (class symbols) was > 7.30.
On to `O=C(O)c1cc2c(s1)-c1cc(F)cc(Cl)c1SC2`, for which the pIC50 in assay [1] (class symbols) is > 7.30. Further, the pEC50 in assay [2] (class symbols) is > 7.30.
For the compound `NC(=O)c1cc2c(s1)-c1cc(F)cc(Cl)c1SC2`, the pIC50 in assay [1] (class symbols) was > 7.00. For the same compound, the pEC50 in assay [2] (class symbols) is > 7.30.
In the case of `NC(=O)c1cc2c(s1)-c1cccc(F)c1CC2`, the pIC50 in assay [1] (class symbols) is > 7.30. The negative-log EC50 (pEC50) in assay [2] (class symbols) is > 7.30.
With `O=C(O)c1cc2c(s1)-c1cccc(F)c1CC2`, the pIC50 in assay [1] (class symbols) is > 7.30. For the same compound, the negative logarithm of the EC50 (pEC50) in assay [2] (class symbols) was > 7.30.
For `COc1ccc2c(c1F)CCc1cc(C(=O)O)sc1-2`, the negative logarithm of the IC50 (pIC50) in assay [1] (class symbols) is > 7.00. In assay [2] (class symbols), the pEC50 is > 7.30.
For `NC(=O)c1cc2c(s1)-c1ccc(Cl)c(Cl)c1SC2`, in assay [1] (class symbols), the pIC50 is > 7.00. The pEC50 in assay [2] (class symbols) is > 7.30.
Taken in the same sequence, the figures for `O=C(O)c1cc2c(s1)-c1ccc(Cl)c(Cl)c1SC2` were > 7.00 and > 7.30.
For `NC(=O)c1cc2c(s1)-c1cc(F)c(F)c(F)c1SC2`, in that order: > 7.30 and > 7.30.
Taken in the same sequence, the figures for `NC(=O)c1cc2c(s1)-c1cc(Cl)cc(Cl)c1SC2` were > 5.70 and > 7.30.
On to `O=C(O)c1cc2c(s1)-c1cc(Cl)cc(Cl)c1SC2`, for which the pIC50 in assay [1] (class symbols) was > 6.00. The pEC50 in assay [2] (class symbols) is > 7.30.
On to `NC(=O)c1cc2c(s1)-c1cc(F)cc(F)c1SC2`, for which the pIC50 in assay [1] (class symbols) was > 7.30. Moreover, the pEC50 in assay [2] (class symbols) was > 7.30.
Take `O=C(O)c1cc2c(s1)-c1sc(Cl)cc1CC2`: the pIC50 in assay [1] (class symbols) is > 7.30. Besides, in assay [2] (class symbols), the pEC50 was > 6.30.
Consider `NC(=O)c1cc2c(s1)-c1ccc(Cl)c(F)c1OC2`, for which the negative-log IC50 (pIC50) in assay [1] (class symbols) is > 7.30. For the same compound, the pEC50 in assay [2] (class symbols) was > 7.30.
Turning to `O=C(O)c1cc2c(s1)-c1ccc(Cl)c(F)c1SC2`, in assay [1] (class symbols), the pIC50 is > 7.30. For the same compound, the pEC50 in assay [2] (class symbols) was > 7.30.
As to `NC(=O)c1cc2c(s1)-c1ccc(Cl)c(F)c1SC2`, the pIC50 in assay [1] (class symbols) was > 7.30. The pEC50 in assay [2] (class symbols) was > 7.30.
Regarding `O=C(O)c1cc2c(s1)-c1cc(F)c(Cl)cc1S(=O)(=O)C2`, in assay [1] (class symbols), the pIC50 was > 5.70. In assay [2] (class symbols), the pEC50 is > 7.30.
`O=C(O)c1cc2c(s1)-c1cc(F)c(Cl)cc1SC2`: in assay [1] (class symbols), the pIC50 was > 7.00. Also, the pEC50 in assay [2] (class symbols) is > 7.30.
Taken in the same sequence, the figures for `NC(=O)c1cc2c(s1)-c1cc(F)c(Cl)cc1SC2` were > 7.00 and > 7.30.
Taken in the same sequence, the figures for `COc1ccc2c(c1)OCc1cc(C(N)=O)sc1-2` were > 6.00 and > 7.00.
For `COc1ccc2c(c1)OCc1cc(C(=O)O)sc1-2`, in that order: > 5.70 and > 7.00.
In the case of `NC(=O)c1cc2c(s1)-c1ccc(Cl)c(Cl)c1OCC2`, the pIC50 in assay [1] (class symbols) is > 5.70. In addition, in assay [2] (class symbols), the pEC50 was > 7.30.
In the case of `O=C(O)c1cc2c(s1)-c1ccc(Cl)c(Cl)c1OCC2`, the pIC50 in assay [1] (class symbols) was > 7.30. Further, the pEC50 in assay [2] (class symbols) is > 7.30.
On to `NC(=O)c1cc2c(s1)-c1cc(F)c(F)cc1OC2`, for which the pIC50 in assay [1] (class symbols) is > 7.00. Besides, the pEC50 in assay [2] (class symbols) was > 7.30.
For `O=C(O)c1cc2c(s1)-c1cc(F)c(F)cc1OC2`, in that order: > 7.00 and > 7.30.
For `NC(=O)c1cc2c(s1)-c1cc(Br)ccc1OC2`, in that order: > 6.00 and > 7.30.
For `O=C(O)c1cc2c(s1)-c1cc(Br)ccc1OC2`, in assay [1] (class symbols), the pIC50 is > 7.00. For the same compound, the pEC50 in assay [2] (class symbols) was > 7.30.
For `O=C(O)c1cc2ccc3scc(Cl)c3c2s1`, in that order: > 7.30 and > 6.00.
Consider `N#Cc1cc2c(cc1F)OCc1cc(C(=O)O)sc1-2`, for which, in assay [1] (setting [3]), the negative-log IC50 (pIC50) is < 5.70. The pEC50 in assay [2] (class symbols) is > 7.00.
In the case of `COc1cc2c(cc1C#N)-c1sc(C(=O)O)cc1CC2`, the pIC50 in assay [1] (setting [3]) was < 5.70. Moreover, the pEC50 in assay [2] (setting [3]) is < 6.00.
On to `Cc1cc(F)cc2c1SCc1cc(C(=O)O)sc1-2`, for which the pIC50 in assay [1] (class symbols) was > 6.00. For the same compound, in assay [2] (class symbols), the pEC50 was > 7.30.
As to `Cc1cc2c(cc1F)-c1sc(C(=O)O)cc1CS2`, in assay [1] (class symbols), the pIC50 was > 7.00. In addition, in assay [2] (class symbols), the pEC50 was > 7.30.
Consider `CC(C)c1ccc2c(c1)-c1sc(C(N)=O)cc1CO2`, for which the pIC50 in assay [1] (setting [3]) was < 5.70. Further, in assay [2] (class symbols), the pEC50 is > 6.00.
For `CC(C)c1ccc2c(c1)-c1sc(C(=O)O)cc1CO2`, in that order: < 5.70 and > 7.00.
On to `NC(=O)c1cc2c(s1)-c1cc(Cl)ccc1OCC2`, for which the pIC50 in assay [1] (class symbols) was > 7.00. In addition, in assay [2] (class symbols), the pEC50 is > 7.00.
As to `NC(=O)c1cc2c(s1)-c1cc(F)ccc1OCC2`, the pIC50 in assay [1] (class symbols) was > 7.30. For the same compound, the negative-log EC50 (pEC50) in assay [2] (class symbols) is > 7.30.
As to `O=C(O)c1cc2c(s1)-c1cc(F)ccc1OCC2`, the pIC50 in assay [1] (class symbols) is > 7.30. Besides, in assay [2] (class symbols), the pEC50 is > 7.30.
On to `O=C(NCCn1ccnc1)c1cc2c(s1)-c1cccc(F)c1CC2`, for which the pIC50 in assay [1] (setting [3]) is < 5.70. The pEC50 in assay [2] (class symbols) was > 6.30.
For `O=C(NC1CC1)c1cc2c(s1)-c1ccccc1CC2`, in that order: < 5.70 and > 7.30.
Consider `CN(C)C(=O)c1cc2c(s1)-c1ccccc1CC2`, for which, in assay [1] (class symbols), the negative-log IC50 (pIC50) was > 6.00. Moreover, the pEC50 in assay [2] (class symbols) was > 7.30.
In the case of `O=C(c1cc2c(s1)-c1cc(F)cc(F)c1SC2)N1CCCC1CO` (stereo not drawn), in assay [1] (class symbols), the pIC50 was > 6.00. For the same compound, the negative-log EC50 (pEC50) in assay [2] (class symbols) is > 7.00.
With `O=C(c1cc2c(s1)-c1cc(F)cc(F)c1SC2)N1CCC(O)C1` (stereo not drawn), the pIC50 in assay [1] (class symbols) is > 7.30. In addition, the pEC50 in assay [2] (class symbols) was > 7.30.
For `COC1CCN(C(=O)c2cc3c(s2)-c2cc(F)cc(F)c2SC3)C1` (stereo not drawn), the pIC50 in assay [1] (class symbols) is > 7.00. The negative logarithm of the EC50 (pEC50) in assay [2] (class symbols) is > 7.30.
Turning to `O=C(c1cc2c(s1)-c1cc(F)cc(F)c1SC2)N1CC[C@H](F)C1`, the pIC50 in assay [1] (class symbols) is > 6.00. Also, the pEC50 in assay [2] (class symbols) was > 7.30.
For `O=C(c1cc2c(s1)-c1c(F)ccc(F)c1SC2)N1CC[C@H](F)C1`, in that order: > 7.00 and > 7.30.
For `O=C(c1cc2c(s1)-c1cc(F)c(Cl)cc1SC2)N1CC[C@H](F)C1`, the pIC50 in assay [1] (class symbols) is > 6.00. The pEC50 in assay [2] (class symbols) was > 7.30.
Turning to `CCOC(=O)c1cc2c(s1)-c1ccc(Cl)c(F)c1SC2`, the pIC50 in assay [1] (class symbols) is > 6.00. In addition, the pEC50 in assay [2] (class symbols) was > 7.00.
As to `O=C(O)C1CCN(C(=O)c2cc3c(s2)-c2c(F)ccc(F)c2SC3)C1` (stereo not drawn), the pIC50 in assay [1] (class symbols) was > 7.00. For the same compound, the pEC50 in assay [2] (class symbols) is > 7.30.
For `COC(=O)C1CCN(C(=O)c2cc3c(s2)-c2cc(F)cc(F)c2SC3)C1` (stereo not drawn), in that order: > 6.00 and > 7.30.
